In ChEMBL document CHEMBL1144455, “A small molecule-kinase interaction map for clinical kinase inhibitors” (Nat Biotechnol, 2005):

Legend:
[1] = target: Calcium/calmodulin-dependent protein kinase type II subunit alpha (Homo sapiens, UniProt Q9UQM7)
[2] = target: T1, Ephrin type-A receptor 8 (Homo sapiens, UniProt P29322)
T1 sequence (P29322 whole entry): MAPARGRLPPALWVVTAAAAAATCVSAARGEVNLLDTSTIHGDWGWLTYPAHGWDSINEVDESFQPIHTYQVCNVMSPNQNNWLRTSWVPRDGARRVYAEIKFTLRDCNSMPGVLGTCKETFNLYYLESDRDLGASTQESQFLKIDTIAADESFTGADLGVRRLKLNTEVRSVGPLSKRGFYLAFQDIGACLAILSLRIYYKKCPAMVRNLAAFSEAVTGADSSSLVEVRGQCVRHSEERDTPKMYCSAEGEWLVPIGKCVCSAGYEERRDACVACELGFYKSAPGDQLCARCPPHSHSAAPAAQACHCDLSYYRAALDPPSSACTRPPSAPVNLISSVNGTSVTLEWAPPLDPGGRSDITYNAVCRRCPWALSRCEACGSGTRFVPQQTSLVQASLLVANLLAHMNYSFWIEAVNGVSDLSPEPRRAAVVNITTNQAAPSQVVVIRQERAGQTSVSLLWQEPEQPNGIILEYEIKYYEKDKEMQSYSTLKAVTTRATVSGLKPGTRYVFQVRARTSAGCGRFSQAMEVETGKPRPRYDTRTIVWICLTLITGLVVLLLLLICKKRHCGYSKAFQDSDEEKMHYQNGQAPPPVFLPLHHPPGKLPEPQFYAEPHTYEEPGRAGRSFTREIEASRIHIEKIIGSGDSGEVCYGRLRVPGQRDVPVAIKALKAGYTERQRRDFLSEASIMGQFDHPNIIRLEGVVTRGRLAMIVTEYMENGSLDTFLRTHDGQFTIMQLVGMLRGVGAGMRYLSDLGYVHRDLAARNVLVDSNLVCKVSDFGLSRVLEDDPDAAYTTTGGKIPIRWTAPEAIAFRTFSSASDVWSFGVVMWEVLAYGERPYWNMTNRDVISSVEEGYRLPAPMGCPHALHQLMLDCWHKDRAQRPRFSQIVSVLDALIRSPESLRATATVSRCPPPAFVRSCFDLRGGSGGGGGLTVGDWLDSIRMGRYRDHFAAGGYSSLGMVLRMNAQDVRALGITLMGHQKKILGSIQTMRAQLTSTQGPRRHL

[3] = target: Tyrosine-protein kinase JAK1 (Homo sapiens, UniProt P23458)
[4] = target: Tyrosine-protein kinase BTK (Homo sapiens, UniProt Q06187)
[5] = target: Tyrosine-protein kinase SYK (Homo sapiens, UniProt P43405)
[6] = target: T2, Receptor-type tyrosine-protein kinase FLT3 (Homo sapiens, UniProt P36888)
T2 sequence (P36888 whole entry): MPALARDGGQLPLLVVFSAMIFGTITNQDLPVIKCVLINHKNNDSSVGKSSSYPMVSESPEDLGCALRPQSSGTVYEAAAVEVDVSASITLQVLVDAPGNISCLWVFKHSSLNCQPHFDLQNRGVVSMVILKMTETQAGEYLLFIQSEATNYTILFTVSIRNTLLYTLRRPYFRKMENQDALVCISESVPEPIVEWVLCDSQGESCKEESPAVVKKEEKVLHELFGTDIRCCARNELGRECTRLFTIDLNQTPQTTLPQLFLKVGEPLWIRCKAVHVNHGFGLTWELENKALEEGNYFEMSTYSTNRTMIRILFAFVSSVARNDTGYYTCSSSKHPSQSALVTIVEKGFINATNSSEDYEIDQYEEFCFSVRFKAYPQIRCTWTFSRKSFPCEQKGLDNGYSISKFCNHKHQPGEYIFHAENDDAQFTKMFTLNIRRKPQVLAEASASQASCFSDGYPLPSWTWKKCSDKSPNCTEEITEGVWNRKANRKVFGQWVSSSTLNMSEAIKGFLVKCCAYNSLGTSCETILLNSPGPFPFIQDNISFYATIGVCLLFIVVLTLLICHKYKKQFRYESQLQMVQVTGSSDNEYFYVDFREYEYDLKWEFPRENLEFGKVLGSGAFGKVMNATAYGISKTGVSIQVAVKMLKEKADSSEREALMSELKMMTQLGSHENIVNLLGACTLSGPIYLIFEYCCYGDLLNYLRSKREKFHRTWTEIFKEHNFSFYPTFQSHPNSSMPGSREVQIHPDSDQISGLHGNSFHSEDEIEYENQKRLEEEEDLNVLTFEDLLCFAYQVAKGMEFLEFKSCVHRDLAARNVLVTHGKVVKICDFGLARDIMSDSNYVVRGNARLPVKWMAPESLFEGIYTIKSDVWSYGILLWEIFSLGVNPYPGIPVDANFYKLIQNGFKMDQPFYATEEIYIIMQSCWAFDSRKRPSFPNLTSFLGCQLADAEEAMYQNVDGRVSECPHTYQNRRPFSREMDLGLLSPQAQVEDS

[7] = target: Tyrosine-protein kinase Fer (Homo sapiens, UniProt P16591)
[8] = target: Ephrin type-A receptor 4 (Homo sapiens, UniProt P54764)
[9] = target: Vascular endothelial growth factor receptor 2 (Homo sapiens, UniProt P35968)
[10] = target: Myosin light chain kinase 2, skeletal/cardiac muscle (Homo sapiens, UniProt Q9H1R3)
[11] = target: Fibroblast growth factor receptor 1 (Homo sapiens, UniProt P11362)
[12] = target: Calcium/calmodulin-dependent protein kinase type II subunit delta (Homo sapiens, UniProt Q13557)
[13] = target: T3, Mitogen-activated protein kinase 12 (Homo sapiens, UniProt P53778)
T3 sequence (P53778 whole entry): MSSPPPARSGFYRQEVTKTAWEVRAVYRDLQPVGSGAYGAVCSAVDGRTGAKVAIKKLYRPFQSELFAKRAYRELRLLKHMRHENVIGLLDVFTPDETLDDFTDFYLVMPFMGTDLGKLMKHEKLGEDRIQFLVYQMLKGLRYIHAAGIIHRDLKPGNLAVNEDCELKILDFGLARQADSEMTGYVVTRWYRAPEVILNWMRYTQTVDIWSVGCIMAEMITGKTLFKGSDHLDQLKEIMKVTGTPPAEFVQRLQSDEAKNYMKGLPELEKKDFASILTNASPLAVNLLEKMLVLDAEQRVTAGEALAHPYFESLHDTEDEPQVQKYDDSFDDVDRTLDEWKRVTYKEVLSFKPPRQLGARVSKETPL

[14] = target: Tyrosine-protein kinase ABL1 (Homo sapiens, UniProt P00519, T315I)

Measured: Kd

Chain of Ephrin type-A receptor 4 (P54764 whole entry): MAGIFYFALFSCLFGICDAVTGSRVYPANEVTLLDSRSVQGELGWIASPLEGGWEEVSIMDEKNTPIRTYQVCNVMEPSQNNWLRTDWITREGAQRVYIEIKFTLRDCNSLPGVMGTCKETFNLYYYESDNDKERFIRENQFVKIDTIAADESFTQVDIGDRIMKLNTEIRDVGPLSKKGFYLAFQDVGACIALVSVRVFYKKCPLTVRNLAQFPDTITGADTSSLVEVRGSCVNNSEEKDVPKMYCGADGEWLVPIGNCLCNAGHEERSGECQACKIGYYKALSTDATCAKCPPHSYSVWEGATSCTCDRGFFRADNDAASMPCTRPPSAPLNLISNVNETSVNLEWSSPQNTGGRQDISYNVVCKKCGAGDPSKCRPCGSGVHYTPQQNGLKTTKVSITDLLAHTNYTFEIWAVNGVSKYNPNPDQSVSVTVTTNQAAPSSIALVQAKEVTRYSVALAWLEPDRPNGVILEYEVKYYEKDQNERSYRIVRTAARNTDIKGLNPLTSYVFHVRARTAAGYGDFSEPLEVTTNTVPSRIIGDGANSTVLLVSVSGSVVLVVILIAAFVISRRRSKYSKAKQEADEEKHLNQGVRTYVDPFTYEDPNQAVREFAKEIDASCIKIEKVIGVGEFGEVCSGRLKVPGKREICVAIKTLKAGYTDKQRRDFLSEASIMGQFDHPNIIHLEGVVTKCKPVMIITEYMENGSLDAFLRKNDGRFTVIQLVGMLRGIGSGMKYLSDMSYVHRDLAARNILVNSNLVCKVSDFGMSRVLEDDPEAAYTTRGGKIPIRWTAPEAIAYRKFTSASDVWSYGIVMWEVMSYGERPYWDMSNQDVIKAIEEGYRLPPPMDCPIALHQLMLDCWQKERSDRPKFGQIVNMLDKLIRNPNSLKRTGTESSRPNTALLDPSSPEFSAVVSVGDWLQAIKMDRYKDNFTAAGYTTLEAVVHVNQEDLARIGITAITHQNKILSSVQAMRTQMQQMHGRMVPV
Chain of Vascular endothelial growth factor receptor 2 (P35968 whole entry): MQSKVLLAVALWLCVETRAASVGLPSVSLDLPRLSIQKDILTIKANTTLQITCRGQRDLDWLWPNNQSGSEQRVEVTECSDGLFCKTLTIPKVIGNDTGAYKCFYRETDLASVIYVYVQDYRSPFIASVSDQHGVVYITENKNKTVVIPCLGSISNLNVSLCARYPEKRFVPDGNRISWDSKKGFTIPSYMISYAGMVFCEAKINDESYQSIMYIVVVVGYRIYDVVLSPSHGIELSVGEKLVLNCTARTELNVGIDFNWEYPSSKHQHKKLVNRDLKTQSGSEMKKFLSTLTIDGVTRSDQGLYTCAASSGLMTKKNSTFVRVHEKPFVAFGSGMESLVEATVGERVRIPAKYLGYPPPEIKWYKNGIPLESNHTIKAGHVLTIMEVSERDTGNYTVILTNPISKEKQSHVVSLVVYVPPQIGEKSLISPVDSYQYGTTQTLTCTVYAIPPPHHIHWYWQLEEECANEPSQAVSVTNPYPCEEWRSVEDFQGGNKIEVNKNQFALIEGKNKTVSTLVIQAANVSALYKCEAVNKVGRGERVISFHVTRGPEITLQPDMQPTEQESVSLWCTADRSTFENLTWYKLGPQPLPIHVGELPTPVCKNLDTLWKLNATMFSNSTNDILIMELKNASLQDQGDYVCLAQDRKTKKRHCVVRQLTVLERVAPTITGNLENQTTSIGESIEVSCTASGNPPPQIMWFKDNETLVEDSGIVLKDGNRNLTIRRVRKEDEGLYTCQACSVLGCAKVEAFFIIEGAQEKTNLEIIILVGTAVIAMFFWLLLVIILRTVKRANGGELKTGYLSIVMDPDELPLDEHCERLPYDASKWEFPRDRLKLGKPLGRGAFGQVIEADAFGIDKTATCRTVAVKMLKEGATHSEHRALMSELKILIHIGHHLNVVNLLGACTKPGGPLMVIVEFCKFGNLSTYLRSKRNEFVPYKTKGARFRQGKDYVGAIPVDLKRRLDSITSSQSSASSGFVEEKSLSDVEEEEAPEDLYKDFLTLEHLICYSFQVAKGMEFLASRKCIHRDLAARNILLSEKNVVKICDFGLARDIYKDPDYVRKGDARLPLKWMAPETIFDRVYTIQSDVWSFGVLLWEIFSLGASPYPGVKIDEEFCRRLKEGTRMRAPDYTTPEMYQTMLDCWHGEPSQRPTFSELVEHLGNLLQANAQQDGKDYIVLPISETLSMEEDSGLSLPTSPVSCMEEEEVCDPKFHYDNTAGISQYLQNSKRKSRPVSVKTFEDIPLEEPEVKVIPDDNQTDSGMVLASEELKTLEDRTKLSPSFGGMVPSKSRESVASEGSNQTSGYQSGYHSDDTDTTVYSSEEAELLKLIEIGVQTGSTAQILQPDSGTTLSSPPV
Chain of Calcium/calmodulin-dependent protein kinase type II subunit alpha (Q9UQM7 whole entry): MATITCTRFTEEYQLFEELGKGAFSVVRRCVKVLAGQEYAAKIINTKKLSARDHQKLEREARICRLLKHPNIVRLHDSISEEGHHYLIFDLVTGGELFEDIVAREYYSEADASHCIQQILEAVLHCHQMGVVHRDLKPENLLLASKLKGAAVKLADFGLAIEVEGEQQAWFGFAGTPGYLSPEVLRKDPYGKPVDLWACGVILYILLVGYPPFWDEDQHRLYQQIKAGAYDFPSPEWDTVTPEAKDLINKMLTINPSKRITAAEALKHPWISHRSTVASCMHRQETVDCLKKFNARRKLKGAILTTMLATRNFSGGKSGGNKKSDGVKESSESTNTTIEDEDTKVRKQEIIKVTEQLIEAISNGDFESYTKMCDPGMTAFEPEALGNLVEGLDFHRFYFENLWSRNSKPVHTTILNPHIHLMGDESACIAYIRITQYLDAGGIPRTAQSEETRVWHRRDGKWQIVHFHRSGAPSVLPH
Chain of Tyrosine-protein kinase JAK1 (P23458 whole entry): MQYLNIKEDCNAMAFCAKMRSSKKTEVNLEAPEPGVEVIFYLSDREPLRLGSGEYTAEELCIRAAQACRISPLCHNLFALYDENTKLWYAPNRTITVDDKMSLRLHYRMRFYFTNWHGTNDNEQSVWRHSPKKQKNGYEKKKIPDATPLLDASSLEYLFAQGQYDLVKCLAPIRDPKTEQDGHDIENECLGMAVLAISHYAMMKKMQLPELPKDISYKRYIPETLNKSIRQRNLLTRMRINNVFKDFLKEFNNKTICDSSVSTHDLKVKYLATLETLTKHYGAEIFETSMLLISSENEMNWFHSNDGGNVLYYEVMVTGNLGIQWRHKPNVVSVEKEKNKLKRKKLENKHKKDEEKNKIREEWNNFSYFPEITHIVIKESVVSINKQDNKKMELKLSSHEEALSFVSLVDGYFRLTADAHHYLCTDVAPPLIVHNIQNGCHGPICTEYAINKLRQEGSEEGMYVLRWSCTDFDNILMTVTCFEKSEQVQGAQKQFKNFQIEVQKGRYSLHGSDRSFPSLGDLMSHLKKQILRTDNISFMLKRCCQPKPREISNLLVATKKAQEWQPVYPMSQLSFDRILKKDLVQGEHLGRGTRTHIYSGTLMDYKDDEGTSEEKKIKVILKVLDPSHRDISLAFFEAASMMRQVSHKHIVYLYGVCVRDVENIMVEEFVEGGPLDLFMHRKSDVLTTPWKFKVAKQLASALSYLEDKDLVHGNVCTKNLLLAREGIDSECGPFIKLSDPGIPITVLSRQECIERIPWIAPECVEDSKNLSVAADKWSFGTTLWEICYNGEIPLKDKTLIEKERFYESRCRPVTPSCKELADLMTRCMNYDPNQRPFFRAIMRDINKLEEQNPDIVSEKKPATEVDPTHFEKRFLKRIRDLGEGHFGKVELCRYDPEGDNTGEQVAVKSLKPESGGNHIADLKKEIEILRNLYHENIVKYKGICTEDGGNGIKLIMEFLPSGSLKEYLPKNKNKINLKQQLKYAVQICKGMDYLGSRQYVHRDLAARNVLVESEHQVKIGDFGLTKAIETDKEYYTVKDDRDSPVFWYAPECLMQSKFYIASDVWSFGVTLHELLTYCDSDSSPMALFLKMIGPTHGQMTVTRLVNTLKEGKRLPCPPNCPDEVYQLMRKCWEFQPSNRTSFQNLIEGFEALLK
Chain of Tyrosine-protein kinase BTK (Q06187 whole entry): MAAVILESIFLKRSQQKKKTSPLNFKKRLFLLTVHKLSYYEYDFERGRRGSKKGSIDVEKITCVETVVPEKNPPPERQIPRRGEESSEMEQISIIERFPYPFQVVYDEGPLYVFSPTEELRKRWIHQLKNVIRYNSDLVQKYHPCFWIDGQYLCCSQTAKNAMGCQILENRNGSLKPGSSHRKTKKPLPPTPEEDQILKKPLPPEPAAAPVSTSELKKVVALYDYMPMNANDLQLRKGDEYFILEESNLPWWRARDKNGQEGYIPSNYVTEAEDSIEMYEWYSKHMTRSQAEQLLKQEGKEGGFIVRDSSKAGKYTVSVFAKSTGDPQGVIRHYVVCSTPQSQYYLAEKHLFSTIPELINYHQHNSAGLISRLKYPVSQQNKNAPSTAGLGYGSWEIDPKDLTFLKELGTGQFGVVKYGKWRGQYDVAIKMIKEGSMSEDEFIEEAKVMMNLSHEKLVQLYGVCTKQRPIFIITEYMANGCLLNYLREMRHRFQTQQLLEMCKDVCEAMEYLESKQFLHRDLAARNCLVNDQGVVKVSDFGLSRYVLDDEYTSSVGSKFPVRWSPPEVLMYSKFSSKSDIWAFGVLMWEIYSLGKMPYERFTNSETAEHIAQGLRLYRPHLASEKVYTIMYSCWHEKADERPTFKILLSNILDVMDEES

C#Cc1cccc(Nc2ncnc3cc(OCCOC)c(OCCOC)cc23)c1 [ERLOTINIB]
not listed: [14]
Not Active: all other assays above

Cc1ccc(NC(=O)c2ccc(CN3CCN(C)CC3)cc2)cc1Nc1nccc(-c2cccnc2)n1 [IMATINIB]
not listed: [2] | [5] | [14]
Not Active: all other assays above

O=c1ncn2nc(Sc3ccc(F)cc3F)ccc2c1-c1c(Cl)cccc1Cl [NEFLAMAPIMOD]
not listed: [2] | [8] | [9]
Not Active: all other assays above

CCOc1cc2ncc(C#N)c(Nc3ccc(F)c(Cl)c3)c2cc1NC(=O)/C=C/CN(C)C [PELITINIB]
Not Active: [1] | [3] | [6] | [8] | [9] | [11] | [12] | [13]

Oc1ccc(-c2nc(-c3ccc(F)cc3)c(-c3ccncc3)[nH]2)cc1 [SB-202190]
not listed: [13]
Not Active: all other assays above

C[S+]([O-])c1ccc(-c2nc(-c3ccc(F)cc3)c(-c3ccncc3)[nH]2)cc1 (configuration not stated) [SB-203580]
not listed: [13]
Not Active: all other assays above

CC[C@H](CO)Nc1nc(NCc2ccccc2)c2ncn(C(C)C)c2n1 [SELICICLIB]
Not Active: all assays above

Oc1c2ccccc2c2c3c(cccc13)N=N2 [SP-600125]
not listed: [5] | [13]
Not Active: all other assays above

COc1cc2c(N3CCN(C(=O)Nc4ccc(OC(C)C)cc4)CC3)ncnc2cc1OCCCN1CCCCC1 [TANDUTINIB]
not listed: [6] | [9]
Not Active: all other assays above
